# Source: the supplement of paper PMC10307832
# What was measured:
# Assay in all cases: relative viability (nuclei count vs DMSO), 5 days (fraction); higher = more cells survive
# [1] = test system: 201T
# Summary of the method: (§1)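 A single step with final 0.05% Triton X-100, 1% formaldehyde and 1 ug/ml Hoechst fixed the cells and stained nuclei 5 days after treatment. Lung cancer cell lines in 1536-well plates had been treated by pin tool the day after seeding with one drug alone or a fixed anchor-drug dose plus five library-drug doses (not always all listed) in √10 steps, and nuclei were counted on 4× images. Relative viability is the ratio of nuclei in treated wells to nuclei in vehicle wells, taken as the median of duplicate plates.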
# [2] = test system: BEN
# Summary of the method: as §1
# [3] = test system: CAL-12T
# Summary of the method: as §1
# [4] = test system: HCC-44
# Summary of the method: as §1
# [5] = test system: HCC-827
# Summary of the method: as §1
# [6] = test system: HOP-62
# Summary of the method: as §1
# [7] = test system: LCLC-103H
# Summary of the method: as §1
# [8] = test system: LCLC-97TM1
# Summary of the method: as §1
# [9] = test system: LXF-289
# Summary of the method: as §1
# [10] = test system: NCI-H1395
# Summary of the method: as §1
# [11] = test system: NCI-H1437
# Summary of the method: as §1
# [12] = test system: NCI-H1650
# Summary of the method: as §1
# [13] = test system: NCI-H1793
# Summary of the method: as §1
# [14] = test system: NCI-H1944
# Summary of the method: as §1
# [15] = test system: NCI-H2087
# Summary of the method: as §1
# [16] = test system: NCI-H2228
# Summary of the method: as §1
# [17] = test system: NCI-H2405
# Summary of the method: as §1
# [18] = test system: NCI-H3122
# Summary of the method: as §1
# [19] = test system: NCI-H322M
# Summary of the method: as §1
# [20] = test system: NCI-H647
# Summary of the method: as §1
# [21] = test system: NCI-H727
# Summary of the method: as §1
# [22] = test system: RERF-LC-KJ
# Summary of the method: as §1
# [23] = test system: SK-LU-1
# Summary of the method: as §1
smiles,measurement,setting,value
Oc1nc(-c2ccc(C(F)(F)F)cc2)nc2c1CSCC2 [XAV939] + N=C(N)NC(=N)NCCc1ccccc1 [Phenformin] (partner 250 µM),relative viability,[1]; first compound 0.08 µM,0.475
same,relative viability,[1]; first compound 0.253 µM,0.421
same,relative viability,[1]; first compound 0.8 µM,0.364
same,relative viability,[1]; first compound 2.53 µM,0.421
same,relative viability,[2]; first compound 0.08 µM,0.245
same,relative viability,[2]; first compound 0.253 µM,0.226
same,relative viability,[2]; first compound 0.8 µM,0.264
same,relative viability,[2]; first compound 2.53 µM,0.243
same,relative viability,[3]; first compound 0.08 µM,0.592
same,relative viability,[3]; first compound 0.253 µM,0.507
same,relative viability,[3]; first compound 0.8 µM,0.46
same,relative viability,[3]; first compound 2.53 µM,0.417
same,relative viability,[4]; first compound 0.08 µM,0.239
same,relative viability,[4]; first compound 0.253 µM,0.219
same,relative viability,[4]; first compound 0.8 µM,0.221
same,relative viability,[4]; first compound 2.53 µM,0.259
same,relative viability,[5]; first compound 0.08 µM,0.364
same,relative viability,[5]; first compound 0.253 µM,0.421
same,relative viability,[5]; first compound 0.8 µM,0.452
same,relative viability,[5]; first compound 2.53 µM,0.394
same,relative viability,[6]; first compound 0.08 µM,0.8
same,relative viability,[6]; first compound 0.253 µM,0.623
same,relative viability,[6]; first compound 0.8 µM,0.646
same,relative viability,[6]; first compound 2.53 µM,0.593
same,relative viability,[7]; first compound 0.08 µM,0.369
same,relative viability,[7]; first compound 0.253 µM,0.29
same,relative viability,[7]; first compound 0.8 µM,0.304
same,relative viability,[7]; first compound 2.53 µM,0.315
same,relative viability,[8]; first compound 0.08 µM,0.474
same,relative viability,[8]; first compound 0.253 µM,0.352
same,relative viability,[8]; first compound 0.8 µM,0.434
same,relative viability,[8]; first compound 2.53 µM,0.373
same,relative viability,[9]; first compound 0.08 µM,0.556
same,relative viability,[9]; first compound 0.253 µM,0.48
same,relative viability,[9]; first compound 0.8 µM,0.539
same,relative viability,[9]; first compound 2.53 µM,0.546
same,relative viability,[10]; first compound 0.08 µM,0.429
same,relative viability,[10]; first compound 0.253 µM,0.443
same,relative viability,[10]; first compound 0.8 µM,0.438
same,relative viability,[10]; first compound 2.53 µM,0.462
same,relative viability,[11]; first compound 0.08 µM,0.343
same,relative viability,[11]; first compound 0.253 µM,0.243
same,relative viability,[11]; first compound 0.8 µM,0.287
same,relative viability,[11]; first compound 2.53 µM,0.252
same,relative viability,[12]; first compound 0.08 µM,0.499
same,relative viability,[12]; first compound 0.253 µM,0.456
same,relative viability,[12]; first compound 0.8 µM,0.373
same,relative viability,[12]; first compound 2.53 µM,0.348
same,relative viability,[13]; first compound 0.08 µM,0.495
same,relative viability,[13]; first compound 0.253 µM,0.389
same,relative viability,[13]; first compound 0.8 µM,0.302
same,relative viability,[13]; first compound 2.53 µM,0.354
same,relative viability,[14]; first compound 0.08 µM,0.233
same,relative viability,[14]; first compound 0.253 µM,0.198
same,relative viability,[14]; first compound 0.8 µM,0.199
same,relative viability,[14]; first compound 2.53 µM,0.17
same,relative viability,[15]; first compound 0.08 µM,0.6
same,relative viability,[15]; first compound 0.253 µM,0.455
same,relative viability,[15]; first compound 0.8 µM,0.433
same,relative viability,[15]; first compound 2.53 µM,0.395
same,relative viability,[16]; first compound 0.08 µM,0.3
same,relative viability,[16]; first compound 0.253 µM,0.328
same,relative viability,[16]; first compound 0.8 µM,0.296
same,relative viability,[16]; first compound 2.53 µM,0.252
same,relative viability,[17]; first compound 0.08 µM,0.373
same,relative viability,[17]; first compound 0.253 µM,0.399
same,relative viability,[17]; first compound 0.8 µM,0.363
same,relative viability,[17]; first compound 2.53 µM,0.413
same,relative viability,[18]; first compound 0.08 µM,0.38
same,relative viability,[18]; first compound 0.253 µM,0.336
same,relative viability,[18]; first compound 0.8 µM,0.338
same,relative viability,[18]; first compound 2.53 µM,0.39
same,relative viability,[19]; first compound 0.08 µM,0.88
same,relative viability,[19]; first compound 0.253 µM,0.716
same,relative viability,[19]; first compound 0.8 µM,0.625
same,relative viability,[19]; first compound 2.53 µM,0.578
same,relative viability,[20]; first compound 0.08 µM,0.553
same,relative viability,[20]; first compound 0.253 µM,0.438
same,relative viability,[20]; first compound 0.8 µM,0.61
same,relative viability,[20]; first compound 2.53 µM,0.28
same,relative viability,[21]; first compound 0.08 µM,0.732
same,relative viability,[21]; first compound 0.253 µM,0.353
same,relative viability,[21]; first compound 0.8 µM,0.635
same,relative viability,[21]; first compound 2.53 µM,0.542
same,relative viability,[22]; first compound 0.08 µM,0.485
same,relative viability,[22]; first compound 0.253 µM,0.425
same,relative viability,[22]; first compound 0.8 µM,0.442
same,relative viability,[22]; first compound 2.53 µM,0.364
same,relative viability,[23]; first compound 0.08 µM,0.548
same,relative viability,[23]; first compound 0.253 µM,0.513
same,relative viability,[23]; first compound 0.8 µM,0.447
same,relative viability,[23]; first compound 2.53 µM,0.556
